PubChem BioAssay AID248 (DTP/NCI, 2004)
Several values for one entry are separate records, joined by “and”; a condition that tells them apart may be missing. Equal values may be shown once. Toxic doses and inconclusive results are not listed. No stated cut-off is given here; in the data, active means T/C of 150% or more; inactive means T/C below 125%.

Tested on: L1210 leukemia ip in BDF1 mice, survival T/C
Test: NCI In Vivo Anticancer Drug Screen. Data for tumor model L1210 Leukemia (intraperitoneal) in B6D2F1 (BDF1) mice
Conditions: endpoint: mean survival time, higher = longer survival
Method in brief: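 In this screen, tumor-bearing mice given compound are compared to those given vehicle, and their survival values are reported as a treated-to-control quotient.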

[1] = dose: 100.0 mg/kg/injection, schedule: Q01DX001 (ip), vehicle: saline
[2] = dose: 200.0 mg/kg/injection, schedule: Q01DX001 (ip), vehicle: saline
[3] = dose: 400.0 mg/kg/injection, schedule: Q01DX001 (ip), vehicle: saline
[4] = dose: 100.0 mg/kg/injection, schedule: Q04DX003 (ip), vehicle: saline with Tween-80
[5] = dose: 200.0 mg/kg/injection, schedule: Q04DX003 (ip), vehicle: saline with Tween-80
[6] = dose: 25.0 mg/kg/injection, schedule: Q01DX009 (ip), vehicle: saline with Tween-80
[7] = dose: 50.0 mg/kg/injection, schedule: Q01DX009 (ip), vehicle: saline with Tween-80
[8] = dose: 100.0 mg/kg/injection, schedule: Q01DX009 (ip), vehicle: saline with Tween-80
[9] = dose: 100.0 mg/kg/injection, schedule: Q01DX009 (ip), vehicle: saline
[10] = dose: 100.0 mg/kg/injection, schedule: Q04DX003 (ip), vehicle: saline
[11] = dose: 200.0 mg/kg/injection, schedule: Q01DX009 (ip), vehicle: saline
[12] = dose: 200.0 mg/kg/injection, schedule: Q04DX003 (ip), vehicle: saline
[13] = dose: 400.0 mg/kg/injection, schedule: Q01DX009 (ip), vehicle: saline
[14] = dose: 100.0 mg/kg/injection, schedule: Q01DX009 (ip), vehicle: Klucel (hydroxypropylcellulose) (HPC)
[15] = dose: 200.0 mg/kg/injection, schedule: Q01DX009 (ip), vehicle: Klucel (hydroxypropylcellulose) (HPC)
[16] = dose: 400.0 mg/kg/injection, schedule: Q01DX009 (ip), vehicle: Klucel (hydroxypropylcellulose) (HPC)
[17] = dose: 50.0 mg/kg/injection, schedule: Q01DX009 (ip), vehicle: saline

Measured: T/C

CC(=O)OCC1OC(N2C(=O)NC(=O)C3C4OC(=O)OC4C32)C(OC(C)=O)C1OC(C)=O (stereo not given)
inactive: dose: 25.0 mg/kg/injection, schedule: Q01DX005 (ip), vehicle: other 108 % of control | dose: 50.0 mg/kg/injection, schedule: Q01DX005 (ip), vehicle: other 100 % of control | dose: 100.0 mg/kg/injection, schedule: Q01DX005 (ip), vehicle: other 106 % of control | dose: 200.0 mg/kg/injection, schedule: Q01DX005 (ip), vehicle: other 106 % of control | dose: 400.0 mg/kg/injection, schedule: Q01DX005 (ip), vehicle: other 108 % of control

Nc1nc2ncnc(N)c2nc1-c1ccc(N(CCCl)CCCl)cc1
inactive: [1] 98 % of control | [2] 95 % of control | [3] 102 % of control

O=C(COc1ccccc1)CC(O)(C(F)(F)F)C(F)(F)F
inactive: [4] 97 % of control | [5] 92 % of control

CC(=O)Nc1ccc2ccc3ccc4ccccc4c3c2c1
inactive: dose: 3.12 mg/kg/injection, schedule: Q04DX002 (ip), vehicle: saline with Tween-80 111 % of control | dose: 6.25 mg/kg/injection, schedule: Q04DX002 (ip), vehicle: saline with Tween-80 111 % of control | dose: 12.5 mg/kg/injection, schedule: Q04DX002 (ip), vehicle: saline with Tween-80 108 % of control | dose: 25.0 mg/kg/injection, schedule: Q04DX002 (ip), vehicle: saline with Tween-80 103 % of control | dose: 50.0 mg/kg/injection, schedule: Q04DX002 (ip), vehicle: saline with Tween-80 102 % of control

CCOc1ccn(C2OC(CO)C(OC3OC(COC(C)=O)C(OC(C)=O)C(OC(C)=O)C3OC(C)=O)C(OC(C)=O)C2OC(C)=O)c(=O)n1 (stereo not given)
inactive: dose: 22.5 mg/kg/injection, schedule: Q01DX001 (ip), vehicle: carboxymethylcellulose (CMC) 100 % of control | dose: 45.0 mg/kg/injection, schedule: Q01DX001 (ip), vehicle: carboxymethylcellulose (CMC) 103 % of control | dose: 90.0 mg/kg/injection, schedule: Q01DX001 (ip), vehicle: carboxymethylcellulose (CMC) 97 % of control | dose: 180.0 mg/kg/injection, schedule: Q01DX001 (ip), vehicle: carboxymethylcellulose (CMC) 100 % of control

N#CCCn1ccc2ccccc21
inactive: dose: 100.0 mg/kg/injection, schedule: Q04DX003 (ip), vehicle: other 96 % of control | dose: 200.0 mg/kg/injection, schedule: Q04DX003 (ip), vehicle: other 104 % of control | dose: 400.0 mg/kg/injection, schedule: Q04DX003 (ip), vehicle: other 106 % of control

CCC(=O)/C(=C\c1ccccc1Cl)C(C)=O
inactive: [4] 111 % of control | [5] 117 % of control | dose: 400.0 mg/kg/injection, schedule: Q04DX003 (ip), vehicle: saline with Tween-80 93 % of control

CCn1cc(C(=O)O)c(=O)c2c3ccccc3ccc21
inactive: dose: 100.0 mg/kg/injection, schedule: Q04DX002 (ip), vehicle: Klucel (hydroxypropylcellulose) (HPC) 96 % of control | dose: 200.0 mg/kg/injection, schedule: Q04DX002 (ip), vehicle: Klucel (hydroxypropylcellulose) (HPC) 93 % of control | dose: 400.0 mg/kg/injection, schedule: Q04DX002 (ip), vehicle: Klucel (hydroxypropylcellulose) (HPC) 100 % of control

CCOC(=O)CCC1(CN2c3ccccc3Sc3ccccc32)CCN(C)C1 (stereo not given)
inactive: [1] 87 % of control

OCCC1(CCO)CCCCC1
inactive: [6] 99 % of control | dose: 25.0 mg/kg/injection, schedule: Q04DX003 (ip), vehicle: saline with Tween-80 114 % of control | [7] 95 % of control | dose: 50.0 mg/kg/injection, schedule: Q04DX003 (ip), vehicle: saline with Tween-80 104 % of control | [8] 95 % of control and 108 % of control

CCOc1ccc(Cl)cc1Cl
inactive: dose: 100.0 mg/kg/injection, schedule: Q04DX002 (ip), vehicle: saline 109 % of control | dose: 200.0 mg/kg/injection, schedule: Q04DX002 (ip), vehicle: saline 113 % of control | dose: 400.0 mg/kg/injection, schedule: Q04DX002 (ip), vehicle: saline 106 % of control

COc1ccc(OC)c(/C=C2\N=C(c3ccccc3)OC2=O)c1
inactive: dose: 100.0 mg/kg/injection, schedule: Q01DX001 (ip), vehicle: acetone 97 % of control | [9] 91 % of control | [10] 100 % of control | dose: 200.0 mg/kg/injection, schedule: Q01DX001 (ip), vehicle: acetone 101 % of control | [11] 94 % of control | [12] 96 % of control | dose: 400.0 mg/kg/injection, schedule: Q01DX001 (ip), vehicle: acetone 92 % of control | [13] 93 % of control | dose: 400.0 mg/kg/injection, schedule: Q04DX003 (ip), vehicle: saline 98 % of control

O=C1C(=O)c2ccccc2C(O)=C1C(C1=C(O)c2ccccc2C(=O)C1=O)c1ccc(Cl)cc1Cl
inactive: dose: 75.0 mg/kg/injection, schedule: Q01DX001 (ip), vehicle: other 91 % of control | dose: 150.0 mg/kg/injection, schedule: Q01DX001 (ip), vehicle: other 91 % of control | dose: 300.0 mg/kg/injection, schedule: Q01DX001 (ip), vehicle: other 107 % of control

C1CCC(OB2OB(OC3CCCCC3)OB(OC3CCCCC3)O2)CC1
inactive: dose: 50.0 mg/kg/injection, schedule: Q04DX003 (ip), vehicle: saline 93 % of control | [1] 93 % of control | [9] 97 % of control | [10] 98 % of control | [2] 98 % of control | [11] 110 % of control | [12] 103 % of control | [3] 86 % of control | [13] 111 % of control

O=[As](O)(CC(O)COc1ccc(Cl)cc1Cl)c1ccc(Cl)cc1 (stereo not given)
inactive: dose: 6.25 mg/kg/injection, schedule: Q01DX001 (ip), vehicle: saline with Tween-80 105 % of control | dose: 12.5 mg/kg/injection, schedule: Q01DX001 (ip), vehicle: saline with Tween-80 98 % of control | dose: 25.0 mg/kg/injection, schedule: Q01DX001 (ip), vehicle: saline with Tween-80 98 % of control | dose: 100.0 mg/kg/injection, schedule: Q01DX001 (ip), vehicle: saline with Tween-80 91 % of control

N#CC1(Cc2ccccc2)c2ccccc2-c2ccccc21
inactive: dose: 100.0 mg/kg/injection, schedule: Q04DX003 (ip), vehicle: Klucel (hydroxypropylcellulose) (HPC) 98 % of control | dose: 200.0 mg/kg/injection, schedule: Q04DX003 (ip), vehicle: Klucel (hydroxypropylcellulose) (HPC) 89 % of control | dose: 400.0 mg/kg/injection, schedule: Q04DX003 (ip), vehicle: Klucel (hydroxypropylcellulose) (HPC) 91 % of control

CCOC(=O)CCSC(C)(C)C(=O)OCC
inactive: [14] 97 % of control | [15] 101 % of control | [16] 100 % of control

CCCCCCC(O)CCc1ccccc1 (stereo not given)
inactive: [14] 103 % of control | [15] 102 % of control | [16] 113 % of control

COC(=O)/C=C(\C(=O)OC)n1ccccc1=O
inactive: dose: 5.0 mg/kg/injection, schedule: Q01DX001 (ip), vehicle: saline 101 % of control | dose: 10.0 mg/kg/injection, schedule: Q01DX001 (ip), vehicle: saline 98 % of control | dose: 20.0 mg/kg/injection, schedule: Q01DX001 (ip), vehicle: saline 95 % of control | dose: 40.0 mg/kg/injection, schedule: Q01DX001 (ip), vehicle: saline 102 % of control

CCOC(=O)C(=CN(C(C)C)C(C)C)C(=O)OCC
inactive: [17] 100 % of control | [9] 98 % of control | [4] 94 % of control | [11] 101 % of control | [5] 100 % of control

Cn1ncc2c(NCc3ccccc3Cl)ncnc21
inactive: [6] 102 % of control | [7] 108 % of control | [8] 124 % of control | dose: 200.0 mg/kg/injection, schedule: Q01DX009 (ip), vehicle: other 93 % of control

CC1CC(C)(C)OC(C(Cl)(Cl)Cl)O1 (stereo not given)
inactive: [17] 98 % of control | [9] 93 % of control | dose: 100.0 mg/kg/injection, schedule: Q04DX003 (ip), vehicle: acetone 112 % of control | [11] 93 % of control | dose: 200.0 mg/kg/injection, schedule: Q04DX003 (ip), vehicle: acetone 106 % of control | dose: 400.0 mg/kg/injection, schedule: Q04DX003 (ip), vehicle: acetone 103 % of control
